Test results taken from US12396996B2, “Compounds, pharmaceutical compositions, and methods of their use in reversing cancer chemoresistance” (priority 2019, dated 2025).

Tested on: H3K9me3 in HMLE-TWIST cells
Experiment: H3K9me3 chromatin immunoprecipitation and deep sequencing
Type: cell-based, human
Protocol: FIG. 11 is a meta-plot depicting the H3K9me3 peaks in HMLE-TWIST cells treated (right graph) with 0.3 μM of chaetocin for 15 hours versus untreated cells (left graph). […] The decrease in red and yellow color and an increase in blue color is consistent with chaetocin-induced inhibition of Suv39H1 and Suv39H2 activities resulting in a decrease in H3K9me3 throughout the chaetocin-treated HMLE-TWIST cells.
Chaetocin is an inhibitor of Suv39H1 and Suv39H2 enzymes, whose catalytic activities trimethylates lysine 9 of histone H3. […] Consistent with our model, we find that genes involved in cell-cell adhesion (a strong marker for epithelial cells) display a specific loss of H3K9me3 in response to chaetocin treatment (Table 6). We also find that genes involved in neural differentiation also lose H3K9me3. […] Moreover, 60 genes display a simultaneous loss of H3K9me3 and an increase in their expression in chaetocin-treated cells (Table 7).

[1] = 0.3 uM for 15 hours, Gene Ontology Biological Process

SMILES: CN1C(=O)[C@@]23C[C@]4([C@]56C[C@@]78SS[C@](CO)(C(=O)N7[C@H]5Nc5ccccc56)N(C)C8=O)c5ccccc5N[C@@H]4N2C(=O)[C@@]1(CO)SS3 [chaetocin]
- change in H3K9me3 profile (0.3 μM for 15 hours versus untreated): specific loss of H3K9me3 over epithelial genes
- number of genes with simultaneous loss of H3K9me3 and increase in expression (0.3 μM for 15 hours, ChIP-seq with RNA-seq): 60 genes
- Fold Enrichment of cell-cell adhesion among genes which lose H3K9me3 [1]: 2.49
- Fold Enrichment of neuron differentiation among genes which lose H3K9me3 [1]: 2.12
